Reference: patent publication US8946426B2, “Substituted bicyclic heterocyclic compounds as gamma secretase modulators” (Janssen Pharmaceuticals, Inc., priority 2009, dated 2015)

Columns and labels:
Aβtotal = test: Method 1: Aβtotal sandwich ELISA in supernatant of SKNBE2 cells carrying APP 695-wild type (Tables 7a, 7b); type: cell-based
Procedure, shortened: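 SKNBE2 cells expressing wild-type APP695 were exposed to compound for 18 Hours in Ultraculture with 1% glutamine. Aβtotal in the supernatant was read by 6E10-capture/biotinylated 4G8 sandwich ELISA with a fluorogenic peroxidase read-out, and WST-1 checked toxicity. IC50 came from a 4-parameter fit of percent inhibition or percent of control versus concentration.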

[1] = test system: Notch-processing activity of the γ-secretase-complex; test: Notch cell-free assay (NICD production from recombinant Notch substrate N99); type: biochemical; conditions: 1 μM test compound; 0.3-0.5 μM mouse Notch substrate; enriched gamma secretase; 37° C., 6 to 22 h; western blot; control GSI concentration not given
Procedure: The Notch transmembrane domain is cleaved by gamma secretase to release Notch Intracellular C-terminal Domain (NICD).
To monitor the effect of compounds on NICD production, a recombinant Notch substrate (N99) was prepared. The Notch substrate, comprised of mouse Notch fragment (V1711-E1809), an N-terminal methionine and a C-terminal FLAG sequence ([…]), was expressed in E. coli and purified on a column containing an anti-FLAG M2 affinity matrix.
A typical Notch cell-free assay consisted of 0.3-0.5 μM Notch substrate, an enriched preparation of gamma secretase and 1 μM of a test compound (compounds 16, 18 and 106 of the present invention). Controls included a gamma secretase inhibitor (GSI), such as (2S)—N-[2-(3,5-difluorophenyl)acetyl]-L-alanyl-2-phenyl-glycine 1,1-dimethylethyl ester (DAPT) or (2S)-2-hydroxy-3-methyl-N-[(1S)-1-methyl-2-oxo-2-[[(1S)-2,3,4,5-tetrahydro-3-methyl-2-oxo-1H-3-benzazepin-1-yl]amino]ethyl]-butanamide (Semagacestat), and DMSO, the final concentration of DMSO being 1%. Recombinant Notch substrate was pre-treated with 17 μM DTT (1,4-dithiothreitol) and 0.02% SDS (Sodium Dodecyl Sulfate) and heated at 65° C. for 10 min. The mixture of substrate, gamma secretase and compound/DMSO was incubated at 37° C. for 6 to 22 hours (h). Six-hour incubation was sufficient to produce the maximal amount of NICD and the cleaved product remained stable for an additional 16 H. Reaction products were processed for SDS PAGE (Sodium Dodecyl Sulfate-Poly Acrylamide Gel Electrophoresis) and western blotting. Blots were probed with an anti-Flag M2 antibody, followed by LI-COR infrared secondary antibody, and analyzed with the Odyssey Infrared Imaging System (LI-COR® Biosciences).

mouse Notch2 = test: Notch cell-based assay (N2-CHO/DL-CHO co-culture, Dual-Glo luciferase, NICD production); conditions: N2-CHO/DL-CHO co-culture 16 H; five-point curve 3 μM-0.3 nM
Description: The Notch cell-based assay was based on the interaction of Notch and its ligand in a co-culture system and utilized the Dual-Glo Luciferase Assay System (Promega) to monitor NICD production. Two stable cell lines, N2-CHO and DL-CHO, were established to express full-length mouse Notch2 and Delta respectively. Cells that expressed mouse Notch were also transfected with two plasmids, pTP1-Luc and pCMV-RLuc, to express firefly and Renilla luciferase. Expression of firefly luciferase was under the control of TP1 promoter that responded to NICD activation.
N2-CHO cells were seeded at 1×10^5/well in 24-well plates the day before transfection. On the second day, cells were double transfected with 3 μg/well pTP1-Luc (expressing firefly luciferase) and 0.3 ng/well pCMV-RLuc (expressing Renilla luciferase). After 6 H incubation, transfected N2-CHO cells were washed and DL-CHO cells (2×10^5 cells/well) were added.
Compounds were pre-mixed with DL-CHO cell suspension in a five-point curve. Typically, compound treatment was performed in duplicate with a serial 1:10 dilution (3 μM-0.3 nM) in DMSO. The final concentration of DMSO in a given culture was 1%. Controls included non-transfected cells and transfected cells treated with a GSI or DMSO only. Luciferase assays were performed after 16 H co-culture and compound treatment.
The luciferase assay was carried out according to manufacture's instructions. Briefly, cells were washed with PBS (Phosphate Buffered Saline), lysed with Passive Lysis Buffer (Promega), and incubated at room temperature for 20 min. Lysates were mixed with Dual-Glo Luciferase Reagent and the firefly luciferase activity was measured by reading the luminescence signal in the EnVision 2101 Multilabel reader. Dual-Glo Stop & Glo Reagent was then added to each well and the Renilla luciferase signal was measured.

[2] = Homo sapiens, SKNBE2, Table 7b, averaged IC50, non-linear regression of percentage of control vs log concentration, 4-parameter equation
[3] = Homo sapiens, Table 7a, SKNBE2 cells, compounds 18 h, XLfit 4-parameter fit of percent inhibition, top/bottom fixed to 100/0, hill slope 1
[4] = Table 7b, averaged IC50, non-linear regression of percentage of control vs log concentration, 4-parameter equation

Row | SMILES | melting point [°C] | IC50 (Aβtotal; [2]) [µM] | IC50 (Aβtotal; [4]) [µM] | also measured
1 | Cc1ncoc1-c1ccc(Nc2cccc3c2nc(-c2ccc(F)cc2)n3C)nc1 [Compound 10] | 195.4 |  |  | 
2 | COc1cc(Nc2cccc3c2nc(-c2ccc(F)cc2)n3C)ccc1-c1ocnc1C [Compound 12] |  | > 3 |  | IC50 (Aβtotal; [3]): > 1 µM
3 | COc1cc(Nc2cccc3c2nc(-c2ccc(F)cc2)n3C)ccc1-c1cnc(C)o1 [Compound 16] | 189 | > 3 |  | IC50 (Aβtotal; [3]): > 3 µM; effect on the Notch-processing activity of the γ-secretase-complex (production of NICD) [1]: did not show an effect
4 | Cc1ncc(-c2ccc(Nc3nccc4c3nc(-c3ccc(F)cc3)n4C)cc2F)o1 [Compound 17] |  | > 3 |  | 
5 | Cc1ncc(-c2ccc(Nc3cccc4c3nc(-c3ccc(F)cc3)n4C(C)C)cn2)o1 [Compound 18] | 133.4 | > 3 |  | effect on the Notch-processing activity of the γ-secretase-complex (production of NICD) [1]: did not show an effect; average IC50 values from the Notch cell-based assay (luciferase assay readouts) (mouse Notch2): non-inhibitory

Continued, in another order:

Row | melting point [°C] | IC50 (Aβtotal; [2]) [µM] | IC50 (Aβtotal; [4]) [µM] | SMILES | also measured
6 |  |  | > 3 | COc1cccc(-c2nc3c(Nc4ccc(-c5cnc(C)o5)nc4)cc(F)cc3n2C)c1 [Compound 105] | 
7 |  |  | > 10 | COc1cc(Nc2cncc3c2nc(-c2ccc(F)cc2)n3C)ccc1-c1cnc(C)o1 [Compound 186] | 
8 |  |  | > 10 | COc1cc(Nc2cc(C(F)(F)F)nn3cc(C)nc23)ccc1-c1cnc(C)o1 [Compound 195] | 
